How the values were obtained:
Cannabinoid receptor 1 = Cannabinoid receptor 1 (Homo sapiens, UniProt P21554)
[1] = target: T1, 5-hydroxytryptamine receptor 2B (Homo sapiens, UniProt P41595); type: functional, cell-based
Melanocortin receptor 4 = Melanocortin receptor 4 (Homo sapiens, UniProt P32245)
Progesterone receptor = target: T2, Progesterone receptor (Homo sapiens, UniProt P06401); type: functional
T2 sequence (P06401 whole entry): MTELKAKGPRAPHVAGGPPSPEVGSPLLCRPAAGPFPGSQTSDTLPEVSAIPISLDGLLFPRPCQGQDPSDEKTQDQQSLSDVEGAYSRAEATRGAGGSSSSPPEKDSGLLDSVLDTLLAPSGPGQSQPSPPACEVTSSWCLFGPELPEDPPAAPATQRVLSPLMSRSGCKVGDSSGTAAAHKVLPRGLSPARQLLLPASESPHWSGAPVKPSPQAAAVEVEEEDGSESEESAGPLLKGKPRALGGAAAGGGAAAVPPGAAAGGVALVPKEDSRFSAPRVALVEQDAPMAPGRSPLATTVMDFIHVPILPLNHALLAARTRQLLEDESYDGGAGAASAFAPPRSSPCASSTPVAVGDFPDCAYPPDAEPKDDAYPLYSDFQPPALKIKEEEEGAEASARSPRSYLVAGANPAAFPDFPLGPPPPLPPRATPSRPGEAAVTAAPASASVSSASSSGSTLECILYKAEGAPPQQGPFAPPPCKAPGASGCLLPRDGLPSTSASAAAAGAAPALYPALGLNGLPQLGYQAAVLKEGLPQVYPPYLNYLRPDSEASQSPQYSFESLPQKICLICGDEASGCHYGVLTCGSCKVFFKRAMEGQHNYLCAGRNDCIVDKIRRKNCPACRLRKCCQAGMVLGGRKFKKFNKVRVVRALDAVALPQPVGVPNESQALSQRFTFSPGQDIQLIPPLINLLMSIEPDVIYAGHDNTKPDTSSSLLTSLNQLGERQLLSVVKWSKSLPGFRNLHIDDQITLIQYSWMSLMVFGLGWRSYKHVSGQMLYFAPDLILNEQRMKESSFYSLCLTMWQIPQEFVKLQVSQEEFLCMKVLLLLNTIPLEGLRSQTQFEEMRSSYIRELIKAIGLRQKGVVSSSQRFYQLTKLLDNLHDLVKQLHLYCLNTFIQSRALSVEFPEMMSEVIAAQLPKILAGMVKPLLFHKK

Thromboxane A2 receptor = target: T3, Thromboxane A2 receptor (Homo sapiens, UniProt P21731)
T3 sequence (P21731 whole entry): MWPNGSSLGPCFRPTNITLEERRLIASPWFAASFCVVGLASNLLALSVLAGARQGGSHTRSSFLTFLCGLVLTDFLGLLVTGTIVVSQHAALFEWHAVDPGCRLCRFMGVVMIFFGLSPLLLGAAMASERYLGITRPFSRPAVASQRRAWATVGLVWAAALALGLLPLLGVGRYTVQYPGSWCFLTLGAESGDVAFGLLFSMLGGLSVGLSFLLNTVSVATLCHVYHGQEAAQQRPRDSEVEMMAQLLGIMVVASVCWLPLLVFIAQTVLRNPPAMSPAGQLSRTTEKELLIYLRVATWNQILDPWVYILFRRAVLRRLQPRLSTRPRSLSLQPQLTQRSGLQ

Histamine H2 receptor = Histamine H2 receptor (Homo sapiens, UniProt P25021); type: functional, cell-based
[2] = target: Sodium-dependent dopamine transporter (Homo sapiens, UniProt Q01959)
[3] = target: T1, 5-hydroxytryptamine receptor 2B; type: functional, cell-based; remark: listed apart in the source
[4] = target: T4, 5-hydroxytryptamine receptor 1A (Homo sapiens, UniProt P08908)
T4 sequence (P08908 whole entry): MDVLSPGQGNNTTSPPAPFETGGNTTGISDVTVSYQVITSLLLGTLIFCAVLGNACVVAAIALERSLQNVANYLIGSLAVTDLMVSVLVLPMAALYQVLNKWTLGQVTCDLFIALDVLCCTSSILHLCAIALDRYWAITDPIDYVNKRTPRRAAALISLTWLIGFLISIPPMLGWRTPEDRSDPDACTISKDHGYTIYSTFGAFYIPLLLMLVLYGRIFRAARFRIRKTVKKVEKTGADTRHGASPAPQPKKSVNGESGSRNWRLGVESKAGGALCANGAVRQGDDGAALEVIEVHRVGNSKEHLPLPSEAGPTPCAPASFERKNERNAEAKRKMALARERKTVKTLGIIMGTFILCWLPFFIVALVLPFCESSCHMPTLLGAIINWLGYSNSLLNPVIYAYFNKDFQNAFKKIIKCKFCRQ

D(3) dopamine receptor = D(3) dopamine receptor (Homo sapiens, UniProt P35462)
Histamine H3 receptor = Histamine H3 receptor (Homo sapiens, UniProt Q9Y5N1)
[5] = target: Prostaglandin G/H synthase 1 (Homo sapiens, UniProt P23219); type: functional
Also: assay procedure not described here.

Chain of Sodium-dependent dopamine transporter (Q01959 whole entry): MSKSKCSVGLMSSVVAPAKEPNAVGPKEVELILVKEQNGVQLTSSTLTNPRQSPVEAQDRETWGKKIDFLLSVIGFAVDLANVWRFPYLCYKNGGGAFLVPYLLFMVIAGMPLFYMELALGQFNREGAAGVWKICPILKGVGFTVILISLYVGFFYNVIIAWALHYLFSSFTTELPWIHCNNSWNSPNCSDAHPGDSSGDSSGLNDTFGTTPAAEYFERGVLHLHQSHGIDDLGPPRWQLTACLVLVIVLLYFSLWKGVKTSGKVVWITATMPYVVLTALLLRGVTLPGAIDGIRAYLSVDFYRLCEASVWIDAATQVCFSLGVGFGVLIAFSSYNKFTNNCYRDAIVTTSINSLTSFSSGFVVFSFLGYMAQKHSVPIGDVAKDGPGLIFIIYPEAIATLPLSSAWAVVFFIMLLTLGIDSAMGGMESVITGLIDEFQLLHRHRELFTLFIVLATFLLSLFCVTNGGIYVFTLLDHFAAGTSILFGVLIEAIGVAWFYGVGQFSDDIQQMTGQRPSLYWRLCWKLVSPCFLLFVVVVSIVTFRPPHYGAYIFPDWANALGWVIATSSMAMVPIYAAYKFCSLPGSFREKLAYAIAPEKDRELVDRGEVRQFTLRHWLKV
Chain of Histamine H2 receptor (P25021 whole entry): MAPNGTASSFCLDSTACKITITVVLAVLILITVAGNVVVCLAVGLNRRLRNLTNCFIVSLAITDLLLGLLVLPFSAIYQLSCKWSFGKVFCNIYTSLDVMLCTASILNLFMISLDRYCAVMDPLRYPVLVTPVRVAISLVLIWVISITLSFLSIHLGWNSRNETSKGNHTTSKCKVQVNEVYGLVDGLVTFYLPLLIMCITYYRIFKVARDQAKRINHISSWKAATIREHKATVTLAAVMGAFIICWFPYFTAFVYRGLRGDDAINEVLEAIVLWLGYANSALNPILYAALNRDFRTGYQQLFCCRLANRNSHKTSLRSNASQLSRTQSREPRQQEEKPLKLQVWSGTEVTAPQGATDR
Chain of D(3) dopamine receptor (P35462 whole entry): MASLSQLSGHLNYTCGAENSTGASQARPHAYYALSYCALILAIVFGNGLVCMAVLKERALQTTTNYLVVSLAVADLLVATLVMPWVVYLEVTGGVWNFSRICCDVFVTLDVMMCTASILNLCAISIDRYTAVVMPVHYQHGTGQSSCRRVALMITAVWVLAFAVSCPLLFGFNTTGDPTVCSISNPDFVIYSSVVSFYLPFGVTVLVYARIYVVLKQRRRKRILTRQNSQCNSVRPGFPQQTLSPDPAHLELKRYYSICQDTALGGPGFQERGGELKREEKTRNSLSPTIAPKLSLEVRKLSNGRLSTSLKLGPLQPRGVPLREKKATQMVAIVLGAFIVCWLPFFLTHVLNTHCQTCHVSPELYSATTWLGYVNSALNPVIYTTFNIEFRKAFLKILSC
Chain of Cannabinoid receptor 1 (P21554 whole entry): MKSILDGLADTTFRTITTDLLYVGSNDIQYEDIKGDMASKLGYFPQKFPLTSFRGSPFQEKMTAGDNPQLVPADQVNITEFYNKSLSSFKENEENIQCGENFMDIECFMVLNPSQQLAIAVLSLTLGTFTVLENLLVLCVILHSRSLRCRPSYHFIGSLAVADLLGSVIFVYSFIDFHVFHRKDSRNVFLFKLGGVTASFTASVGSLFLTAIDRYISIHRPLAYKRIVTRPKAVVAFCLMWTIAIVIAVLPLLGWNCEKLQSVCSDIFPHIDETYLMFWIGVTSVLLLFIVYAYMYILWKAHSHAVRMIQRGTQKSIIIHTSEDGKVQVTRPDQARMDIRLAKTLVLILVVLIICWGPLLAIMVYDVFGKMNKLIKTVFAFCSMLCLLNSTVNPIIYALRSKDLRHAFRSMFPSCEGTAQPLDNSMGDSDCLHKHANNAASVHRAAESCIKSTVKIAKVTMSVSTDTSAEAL
T1 sequence (P41595 whole entry): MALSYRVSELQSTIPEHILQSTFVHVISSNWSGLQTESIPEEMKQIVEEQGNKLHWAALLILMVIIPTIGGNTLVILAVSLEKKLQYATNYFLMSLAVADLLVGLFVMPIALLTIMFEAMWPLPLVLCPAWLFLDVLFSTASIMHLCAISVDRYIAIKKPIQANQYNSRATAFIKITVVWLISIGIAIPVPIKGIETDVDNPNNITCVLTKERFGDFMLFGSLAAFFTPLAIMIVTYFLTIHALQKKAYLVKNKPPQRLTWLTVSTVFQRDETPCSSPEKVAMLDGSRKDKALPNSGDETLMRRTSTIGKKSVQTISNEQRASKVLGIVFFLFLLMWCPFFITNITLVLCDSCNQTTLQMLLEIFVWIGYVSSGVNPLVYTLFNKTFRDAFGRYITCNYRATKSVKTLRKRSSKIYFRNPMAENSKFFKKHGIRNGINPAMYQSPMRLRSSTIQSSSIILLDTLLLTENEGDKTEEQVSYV
Chain of Prostaglandin G/H synthase 1 (P23219 whole entry): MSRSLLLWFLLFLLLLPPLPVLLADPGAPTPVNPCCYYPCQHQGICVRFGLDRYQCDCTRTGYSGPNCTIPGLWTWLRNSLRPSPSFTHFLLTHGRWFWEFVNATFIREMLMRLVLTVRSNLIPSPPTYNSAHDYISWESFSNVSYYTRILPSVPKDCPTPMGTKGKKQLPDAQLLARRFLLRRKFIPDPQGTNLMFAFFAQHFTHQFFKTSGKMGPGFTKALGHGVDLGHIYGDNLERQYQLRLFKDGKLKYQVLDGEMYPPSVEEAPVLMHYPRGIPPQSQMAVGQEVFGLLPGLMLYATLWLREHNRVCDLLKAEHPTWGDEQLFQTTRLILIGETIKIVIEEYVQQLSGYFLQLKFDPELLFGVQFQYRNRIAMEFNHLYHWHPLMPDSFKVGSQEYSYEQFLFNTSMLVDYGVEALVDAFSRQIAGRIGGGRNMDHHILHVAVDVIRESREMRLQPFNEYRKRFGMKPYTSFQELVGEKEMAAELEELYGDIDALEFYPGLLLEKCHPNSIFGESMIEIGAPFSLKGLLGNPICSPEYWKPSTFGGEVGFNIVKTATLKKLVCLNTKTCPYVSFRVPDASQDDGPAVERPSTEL
Chain of Melanocortin receptor 4 (P32245 whole entry): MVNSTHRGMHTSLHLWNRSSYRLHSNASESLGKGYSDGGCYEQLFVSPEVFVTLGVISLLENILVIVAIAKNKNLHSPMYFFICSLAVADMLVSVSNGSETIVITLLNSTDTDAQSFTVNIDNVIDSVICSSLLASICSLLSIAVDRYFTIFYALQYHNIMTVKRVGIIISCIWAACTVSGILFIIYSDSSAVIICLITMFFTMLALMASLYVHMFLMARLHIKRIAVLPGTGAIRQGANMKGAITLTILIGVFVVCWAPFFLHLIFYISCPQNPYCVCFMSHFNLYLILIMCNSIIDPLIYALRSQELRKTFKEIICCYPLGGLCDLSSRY
Chain of Histamine H3 receptor (Q9Y5N1 whole entry): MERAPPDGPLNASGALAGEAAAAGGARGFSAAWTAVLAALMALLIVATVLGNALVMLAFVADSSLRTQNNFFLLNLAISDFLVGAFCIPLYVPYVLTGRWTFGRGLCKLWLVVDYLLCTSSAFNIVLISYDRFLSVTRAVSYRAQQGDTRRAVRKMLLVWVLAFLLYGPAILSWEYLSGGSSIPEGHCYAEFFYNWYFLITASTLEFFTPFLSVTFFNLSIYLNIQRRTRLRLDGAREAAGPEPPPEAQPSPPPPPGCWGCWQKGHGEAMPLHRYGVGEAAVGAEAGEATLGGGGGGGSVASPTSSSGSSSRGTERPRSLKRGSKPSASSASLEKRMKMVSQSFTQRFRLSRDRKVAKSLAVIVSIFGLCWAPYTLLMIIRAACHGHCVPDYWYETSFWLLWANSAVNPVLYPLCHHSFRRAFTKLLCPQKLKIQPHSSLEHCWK

Row | SMILES | AC50 (Cannabinoid receptor 1) [µM] | AC50 [1] [µM] | AC50 (Melanocortin receptor 4) [µM] | AC50 (Progesterone receptor) [µM] | AC50 (Thromboxane A2 receptor) [µM] | AC50 (Histamine H2 receptor) [µM] | AC50 [2] [µM] | AC50 [3] [µM] | AC50 [4] [µM] | AC50 (D(3) dopamine receptor) [µM] | AC50 (Histamine H3 receptor) [µM] | AC50 [5] [µM]
1 | O=C1Nc2ccc(Cl)cc2[C@@](C#CC2CC2)(C(F)(F)F)O1 [EFAVIRENZ] | 20.7 | > 10 | > 30 | > 30 | > 30 | > 10 | – | – | – | – | – | –
2 | Clc1ccc(C(c2ccccc2Cl)C(Cl)Cl)cc1 (configuration not stated) [MITOTANE] | 12.8 | > 10 | > 10 | 0.45 | > 10 | > 10 | – | – | – | – | – | –
3 | CCCN1C[C@H](CSC)C[C@@H]2c3cccc4[nH]cc(c34)C[C@H]21 [PERGOLIDE] | > 10 | – | > 30 | > 30 | > 30 | 0.95 | – | – | – | – | – | –
4 | NS(=O)(=O)Cc1noc2ccccc12 [ZONISAMIDE] | > 10 | > 10 | > 10 | > 10 | > 10 | > 10 | – | – | – | – | – | –
5 | Cc1cn([C@H]2C=C[C@@H](CO)O2)c(=O)[nH]c1=O [STAVUDINE] | > 10 | > 10 | > 30 | – | > 30 | > 10 | > 30 | > 30 | > 30 | > 30 | > 30 | > 30
6 | Cc1cccc(Nc2ccccc2C(=O)O)c1C [MEFENAMIC ACID] | > 10 | > 10 | > 10 | > 10 | > 10 | > 10 | > 30 | > 30 | > 30 | > 30 | > 30 | 0.0343
7 | O=C(O[C@H]1C[C@H]2CC[C@@H](C1)[N+]21CCCC1)C(O)(c1ccccc1)c1ccccc1 [TROSPIUM] | > 30 | > 30 | > 30 | > 30 | > 30 | > 30 | – | – | – | – | – | –
8 | CCOC(=O)[C@H](CCc1ccccc1)N[C@@H](C)C(=O)N1[C@H](C(=O)O)C[C@@H]2CCC[C@@H]21 | > 10 | > 10 | > 30 | – | > 30 | > 10 | – | – | – | – | – | –
9 | CS(=O)(=O)c1ccc(C2=C(c3ccccc3)C(=O)OC2)cc1 [ROFECOXIB] | > 10 | > 30 | 24.1 | – | > 30 | > 30 | > 30 | > 30 | > 30 | > 30 | > 30 | –
10 | Cn1nnc2c(C(N)=O)ncn2c1=O [TEMOZOLOMIDE] | > 10 | > 30 | > 30 | > 30 | > 30 | > 10 | – | – | – | – | – | –
11 | CN(C)CCC(c1ccc(Cl)cc1)c1ccccn1 (configuration not stated) [CHLORPHENIRAMINE] | > 10 | > 10 | > 30 | – | > 30 | > 10 | – | – | – | – | – | –
12 | C[C@@H](O)[C@H]1C(=O)N2C(C(=O)O)=C(S[C@@H]3CN[C@H](C(=O)N(C)C)C3)[C@H](C)[C@H]12 [MEROPENEM] | > 10 | > 300 | > 10 | > 300 | > 10 | > 10 | – | – | – | – | – | –
13 | CN(C)/N=N/c1[nH]cnc1C(N)=O [DACARBAZINE] | > 10 | > 10 | > 10 | > 10 | > 10 | > 10 | – | – | – | – | – | –
14 | CC[C@H]1OC(=O)[C@H](C)[C@@H](O[C@H]2C[C@@](C)(OC)[C@@H](O)[C@H](C)O2)[C@H](C)[C@@H](O[C@@H]2O[C@H](C)C[C@H](N(C)C)[C@H]2O)[C@](C)(O)C[C@@H](C)CN(C)[C@H](C)[C@@H](O)[C@]1(C)O [AZITHROMYCIN] | > 10 | > 10 | > 30 | – | > 30 | > 10 | > 30 | > 30 | > 30 | > 30 | > 30 | > 30
15 | CN1C(=O)CCS(=O)(=O)C1c1ccc(Cl)cc1 (configuration not stated) [CHLORMEZANONE] | > 10 | > 10 | > 10 | > 10 | > 10 | > 30 | – | – | – | – | – | –
16 | O=P1(NCCCl)OCCCN1CCCl (configuration not stated) [IFOSFAMIDE] | > 30 | > 30 | > 30 | > 30 | > 30 | > 30 | – | – | – | – | – | –
17 | CC(C)C[C@H]1C(=O)N2CCC[C@H]2[C@]2(O)O[C@](NC(=O)[C@@H]3C=C4c5cccc6[nH]c(Br)c(c56)C[C@H]4N(C)C3)(C(C)C)C(=O)N12 [BROMOCRIPTINE] | > 10 | 0.538 | > 30 | > 30 | > 30 | 2.13 | > 30 | > 30 | 0.003 | – | > 30 | 2.49
18 | Nc1ccn([C@H]2CC[C@@H](CO)O2)c(=O)n1 [ZALCITABINE] | > 10 | > 10 | > 10 | – | > 10 | > 10 | – | – | – | – | – | –
19 | C[C@]12CCC(=O)C=C1CC[C@@H]1[C@@H]2[C@@H](O)C[C@@]2(C)[C@H]1CC[C@]2(O)C(=O)CO [HYDROCORTISONE] | > 10 | > 10 | > 30 | – | > 30 | > 10 | – | – | – | – | – | –
20 | Cc1ccc(-c2cc(C(F)(F)F)nn2-c2ccc(S(N)(=O)=O)cc2)cc1 [CELECOXIB] | > 10 | > 10 | > 10 | – | > 10 | > 10 | – | – | – | – | – | –
21 | Clc1ccc2nsnc2c1NC1=NCCN1 [TIZANIDINE] | > 10 | > 30 | > 30 | – | > 30 | 0.93 | – | – | – | – | – | –
22 | CCCSc1ccc2nc(NC(=O)OC)[nH]c2c1 [ALBENDAZOLE] | > 10 | > 10 | > 10 | > 10 | > 30 | > 10 | – | – | – | – | – | –
23 | CO[C@H]1C[C@@H]2CC[C@@H](C)[C@@](O)(O2)C(=O)C(=O)N2CCCC[C@H]2C(=O)O[C@H]([C@H](C)C[C@@H]2CC[C@@H](O)[C@H](OC)C2)CC(=O)[C@H](C)/C=C(\C)[C@@H](O)[C@@H](OC)C(=O)[C@H](C)C[C@H](C)/C=C/C=C/C=C/1C [SIROLIMUS] | > 10 | > 10 | > 30 | – | > 30 | > 10 | > 30 | > 30 | > 30 | > 30 | > 30 | 26.6
24 | CCC(C)n1ncn(-c2ccc(N3CCN(c4ccc(OCC5COC(Cn6cncn6)(c6ccc(Cl)cc6Cl)O5)cc4)CC3)cc2)c1=O (configuration not stated) [ITRACONAZOLE] | > 30 | > 30 | > 30 | > 30 | > 30 | > 10 | – | – | – | – | – | –

Source: ChEMBL document CHEMBL5291721, “A preclinical secondary pharmacology resource illuminates target-adverse drug reaction associations of marketed drugs” (Nat Commun, 2023)
